# Source: patent US20210023115A1, “COMPOSITION OF ANTI-TUMOR COMPOUND DRUG AND APPLICATION THEREOF IN FIGHTING TUMORS” (HANGZHOU XINGAO BIOTECHNOLOGY CO. LTD, priority 2018, published 2021)
# System: subcutaneous transplanted tumors (CT26, LL/2, A375, MNK-45, SK-OV-3)
# Assay: Inhibition of growth of subcutaneous transplanted tumors in tumor-bearing mouse model
# Assay type: in vivo
# Details: 10 mg/kg
# Description: Embodiment 4: Test of Anti-Tumor Effect (i.e., The Inhibition Effect on the Growth of Subcutaneous Transplanted Tumors in Animals) of the Anti-Tumor Compound Drug with a Tumor-Bearing Mouse Model
# BALB/c ordinary mice and C57/BL6 ordinary mice, male, 18-20 g in weight, 7-8 weeks old, SPF grade, purchased from Shanghai SLAC Laboratory Animal Co., Ltd. [Laboratory Animal Quality Certificate Number: SCXK (Shanghai) 2007-0005].
# Mice are given intravenous injections, and one dose group is set: cGAMP, 10 mg/kg; compound anti-tumor drug, 10 mg/kg
# Positive control: cGAMP, 10 mg/kg in dose
# Administration route: administration by intraperitoneal injection
# Administration volume: 100 μl/animal
# Number of times of administration: continuous administration for 21 days, once every day
# Number of animals in each group: 10
# Mouse colorectal cancer cell line CT26, mouse Lewis lung cancer cell line LL/2, human ovarian cancer cell line SK-OV-3, human melanoma cell line A375, and human gastric cancer cell line MNK-45, which are all purchased from the Cell Bank of the Chinese Academy of Sciences.
# The administration is continued for 21 days. 21 days later, the mice are killed and the tumors are weighed. Tumor inhibition rate=[1−mean tumor weight of experimental group/mean tumor weight of group A)]×100%.
# Data is expressed with x±s, and processed with SPSS10.0 software. […]
compound,measurement,setting,value
"Nc1nc2c(ncn2[C@@H]2O[C@@H]3COP(=O)(O)O[C@H]4[C@@H](O)[C@H](n5cnc6c(N)ncnc65)O[C@@H]4COP(=O)(O)O[C@@H]2[C@@H]3O)c(=O)[nH]1 [cGAMP, Cyclic [G(2′,5′)pA(3′,5′)p]]",growth of tumors,"once every day for 21 days, subcutaneous transplanted tumor models in mice",obviously inhibit the growth of tumors
same,weights of tumors vs negative control group,"after administration for 21 days, P<0.05, P<0.01",significantly lower than those of the negative control group
